Results: patent EP3287466B1, “AMORPHOUS PICEATANNOL 3'-O-GLUCOSIDE AND PREPARATION METHOD THEREOF” (KPC Pharmaceuticals, Inc., priority 2015, dated 2016)
≈ marks a conversion by molar mass, not a printed value.

Experiment: Solubility test (shaken 30 min to saturation, content measured by HPLC)
Assay type: physicochemical
Settings: shaken for 30min to saturation; for piceatannol 3'-O-glucoside solubility, 0.9% aqueous solution of Sodium chloride: in 0.9wt% aqueous solution of sodium chloride
Procedure: Appropriate amounts of samples 1 to 4 and raw material sample were taken. Water, 0.9wt% aqueous solution of sodium chloride were added, respectively, and shaken for 30min, respectively, to dissolve the sample to saturation. The above solutions were taken and subjected to HPLC to measure the content of piceatannol 3'-O-glucoside in the solutions. Table 1. Comparison of the results of piceatannol 3'-O-glucoside solubility (mg/ml)

Compound | piceatannol 3'-O-glucoside solubility, 0.9% aqueous solution of Sodium chloride (30 min) | solubility at 0.5 h (water, in water, read-out: piceatannol 3'-O-glucoside solubility, Water) | piceatannol 3'-O-glucoside solubility, Water (in water, 30 min)
OC[C@H]1O[C@@H](Oc2cc(/C=C/c3cc(O)cc(O)c3)ccc2O)[C@H](O)[C@@H](O)[C@@H]1O [Raw material sample, piceatannol 3'-O-glucoside] | 4.67 mg/mL | – | –
OC[C@H]1O[C@@H](Oc2cc(/C=C/c3cc(O)cc(O)c3)ccc2O)[C@H](O)[C@@H](O)[C@@H]1O [Sample 1, piceatannol 3'-O-glucoside] | 14.36 mg/mL | – | –
OC[C@H]1O[C@@H](Oc2cc(/C=C/c3cc(O)cc(O)c3)ccc2O)[C@H](O)[C@@H](O)[C@@H]1O [Sample 2, piceatannol 3'-O-glucoside] | 14.19 mg/mL | – | –

Other lines, results leading:

piceatannol 3'-O-glucoside solubility, 0.9% aqueous solution of Sodium chloride (30 min) | solubility at 0.5 h (water, in water, read-out: piceatannol 3'-O-glucoside solubility, Water) | piceatannol 3'-O-glucoside solubility, Water (in water, 30 min) | Compound
– | 15.2 mg/mL (≈ 37.5 mM) | – | OC[C@H]1O[C@@H](Oc2cc(/C=C/c3cc(O)cc(O)c3)ccc2O)[C@H](O)[C@@H](O)[C@@H]1O [Sample 3, piceatannol 3'-O-glucoside]
14.31 mg/mL | – | 14.45 mg/mL | OC[C@H]1O[C@@H](Oc2cc(/C=C/c3cc(O)cc(O)c3)ccc2O)[C@H](O)[C@@H](O)[C@@H]1O [Sample 4, piceatannol 3'-O-glucoside]
